Reference: patent US6703347B2, “Isothiazole derivatives and their use as pesticides” (Syngenta Limited, priority 2000, dated 2004)

Assays:
[1] = test system: Plasmopara viticola (PLASVI); assay: foliar fungicide test on vines (Example 19); type: in vivo; conditions: 100 ppm foliar (Prot) application on vines; inoculated 6 hours or one day after application
[2] = test system: Blumeria graminis f.sp. tritici (ERYSGT); assay: foliar fungicide test on wheat (Example 19); type: in vivo; conditions: 100 ppm foliar (Prot) application on wheat; inoculated 6 hours or one day after application
[3] = test system: Puccinia recondita (PUCCRT); assay: foliar fungicide test on wheat (Example 19); type: in vivo; conditions: 100 ppm foliar (Prot) application on wheat; inoculated 6 hours or one day after application
[4] = test system: peach potato aphids (Myzus persicae); conditions: 500 ppm by weight; infested Chinese cabbage leaves sprayed; mortality assessed after three days
[5] = test system: two-spotted spider mites (Tetranychus urticae); conditions: liquid composition containing 500 ppm by weight of compound
[6] = test system: fruit flies (Drosophila melanogaster); assay: pesticidal test against fruit flies; conditions: liquid composition containing 500 ppm by weight of compound
[7] = test system: corn root worm (Diabrotica balteata); assay: pesticidal test against corn root worm; conditions: liquid composition containing 500 ppm by weight of compound
[8] = test system: diamond back moth (Plutella xylostella); assay: pesticidal test against diamond back moth; conditions: liquid composition containing 500 ppm by weight of compound

| melting point [°C] | SMILES | PLASVI Prot, PRCO (Percentage Reduction from Control) [1] | ERYSGT Prot, PRCO (Percentage Reduction from Control) [2] | PUCCRT Prot, PRCO (Percentage Reduction from Control) [3] | mortality (score) Mp [4] | mortality (score) Tu [5] | mortality (score) Dm [6] | mortality (score) Db [7] | mortality (score) Px [8] |
| --- | --- | --- | --- | --- | --- | --- | --- | --- | --- |
| – | Cc1nsc(NC(=O)C(=CO)c2ccc3oc(CC(C)(C)C)nc3c2)c1Cl [Table 12 Compound 7] | 100 | 78 | 97 | 0 (represents less than 40% mortality) | 9 (9 indicates 80-100% mortality) | 0 (represents less than 40% mortality) | 9 (9 indicates 80-100% mortality) | 9 (9 indicates 80-100% mortality) |
| 144 to 145 | Cc1nsc(NC(=O)Cc2ccc3oc(CC(C)(C)C)nc3c2)c1Cl | – | – | – | – | – | – | – | – |
| – | Cc1nsc(NC(=O)C(F)c2ccc3oc(CC(C)(C)C)nc3c2)c1Cl (centres unmarked) [Table 5 Compound 7] | 98 | 100 | 96 | 9 (9 indicates 80-100% mortality) | 9 (9 indicates 80-100% mortality) | – | – | – |
